Test results as given in US5876981A, “Transglycosylation reactions employing β-galactosidase” (The Scripps Research Institute, priority 1996, dated 1999).

How the values were obtained:
Type in all cases: biochemical, Bacillus circulans
[1] = system: β-galactosidase; experiment: half-life in β-galactosidase-catalyzed hydrolysis (pseudo first order kinetics); conditions: 5 mM compound, enzyme 140 U/mmol, in D2O, NMR integration of released 3 vs remaining 4
Procedure: (§1) The half-lives of compounds 2 and 4 determined from the pseudo first order kinetics of the β-galactosidase-catalyzed hydrolysis were measured as below. 2: A 0.5-mL solution of potassium phosphate buffer (50 mM, pH 7.0) containing 2 (5 mM) and β-galactosidase (140 unit per 1 mmol of 2) was measured continuously in a plastic cell with a 1 cm light path at 420 nm against a control in the absence of the enzyme. 4: A 5-mM solution of 4 and the enzyme (140 U/mmol) in D2 O was poured into an NMR tube, the ratio between the released 3 and remaining 4 was determined periodically by the integration of 6-H of 4 (3.98 ppm) and 6-H of 3 (3.88 ppm).

[2] = system: β-galactosidase; experiment: initial reaction rate of β-galactosidase-catalyzed reaction (released p-nitrophenol, 420 nm); conditions: 0.05M donor, 0.05M potassium phosphate buffer pH 7.0, room temperature
Procedure: FIG. 2 illustrates the comparison of β-galactosidase-catalyzed reaction using galactopyranose (GalβOpNP) and galactohexodialdose (6-oxo-GalβOpNP). (a): The reaction mixture containing 0.05M of donor, and various concentrations of N-acetyl-D-glucosamine in 0.05M potassium phosphate buffer (pH 7.0) was gently stirred at room temperature in the presence of the enzyme (140 U/mmol of donor) for 24 hours; (b) The mixture (containing the same components as described in (a)) was incubated with shaking for 5-10 min at room temperature. Absorbance was measured at 420 nm; (C) Methyl-β-N-acetyl-D-lactosamine (5) was obtained by reduction with NaBH4 followed by product isolation.
In order to determine which step is kinetically controlled, the effect of acceptors on initial reaction rate, (V)0, was investigated (FIG. 2). […] Addition of water soluble organic solvent would reduce water activity to some extent, but it often causes substrate and/or product inhibition and makes the enzyme unstable (Kieboom et al., Recl. Trav. Chim. Pays-Bas 1988, 107, 347-348). To shift the reaction toward transglycosylation in water, it is therefore necessary to kinetically control the partitioning step to favor the transglycosylation.

[3] = half-life in β-galactosidase-catalyzed hydrolysis (pseudo first order kinetics); conditions: potassium phosphate buffer with β-galactosidase; 5 mM compound, enzyme 140 unit per mmol, 50 mM potassium phosphate buffer pH 7.0, absorbance at 420 nm; read-out: T1/2 toward the β-galactosidase-catalyzed hydrolysis (converted)
Procedure: as §1

| Compound | T1/2 toward the β-galactosidase-catalyzed hydrolysis [1] [min] | substrate quality for β-galactosidase [2] | half-life at 5000 µM [3] [min] |
| --- | --- | --- | --- |
| 6'-oxo-LacNAc [Compound 4] | 1860 | – | – |
| O=[N+]([O-])c1ccc(O[C@@H]2O[C@H](C(O)O)[C@H](O)[C@H](O)[C@H]2O)cc1 [Compound 2, p-nitrophenyl glycoside of D-galactohexodialdose] | – | relatively weak substrate | 24 |
